# Read-outs that look alike come from different tables or passages of the source.
# Experiments:
# [1] = target: T1, hDAT (Homo sapiens, UniProt Q01959); conditions: cited from earlier work; for Ratio DAT/SERT: 1/(DAT IC50) divided by 1/(SERT IC50), uptake, ref Eshleman et al. 2017
# [2] = target: T2, hNET (Homo sapiens, UniProt P23975); conditions: read-out: Inhibition of [3H]neurotransmitter uptake IC50 ± sem, hNET [3H]NE; HEK-hNET cells; ref Eshleman et al. 2017; cited from earlier work
# [3] = target: T1, hDAT; assay: Inhibition of [125I]RTI-55 binding, HEK-hDAT membranes
# [4] = target: T3, hSERT (Homo sapiens, UniProt P31645); assay: Inhibition of [125I]RTI-55 binding, HEK-hSERT membranes
# [5] = target: T2, hNET; assay: biochemical; format: binding
# [6] = target: T1, hDAT; assay: Inhibition of [3H]DA uptake by HEK-hDAT cells; format: cell-based; conditions: for Ratio DAT/SERT: 1/(DAT IC50) divided by 1/(SERT IC50), uptake, higher = more DAT selective
# [7] = target: T3, hSERT; assay: Inhibition of [3H]5-HT uptake by HEK-hSERT cells; format: cell-based
# [8] = target: T2, hNET; assay: cell-based
# [9] = target: T1, hDAT; assay: Drug-induced release of preloaded [3H]DA from HEK-hDAT cells; format: cell-based; conditions: for % maximum release ± sem, hDAT [3H]DA: relative to maximal AUC induced by METH (1 or 10 μM); for releasing efficacy at hDAT: [3H]DA release
# [10] = target: T3, hSERT; assay: Drug-induced release of preloaded [3H]5-HT from HEK-hSERT cells; format: cell-based; conditions: for % maximum release ± sem, hSERT [3H]5-HT: relative to maximal AUC induced by METH (0.3–1 mM); for releasing efficacy at hSERT: [3H]5-HT release
# [11] = target: T2, hNET; assay: Drug-induced release of preloaded [3H]NE from HEK-hNET cells; format: cell-based; conditions: for % maximum release ± sem, hNET [3H]NE: relative to maximal AUC induced by METH (0.3 or 1 μM); for releasing efficacy at hNET: [3H]NE release
# [12] = tested on: mouse striatum; conditions: administered orally, ref Fuwa et al. 2016; cited from earlier work
# [13] = target: T1, hDAT; conditions: relative to maximal METH release; ref Eshleman et al. 2017; cited from earlier work
# [14] = target: T3, hSERT; conditions: relative to maximal METH release; ref Eshleman et al. 2017; cited from earlier work
# [15] = target: T2, hNET; conditions: ref Eshleman et al. 2017, cited from earlier work
# [16] = read-out: Inhibition of [3H]neurotransmitter uptake IC50 ± sem, hNET [3H]NE, HEK-hNET cells
# [17] = read-out: Inhibition of [125I]RTI-55 binding Ki ± sem, hDAT, HEK-hDAT membranes
# [18] = read-out: Inhibition of [125I]RTI-55 binding Ki ± sem, hNET, HEK-hNET membranes
# [19] = read-out: Drug-induced release of [3H]neurotransmitter EC50 ± sem, hNET [3H]NE, HEK-hNET cells
# T2 sequence (P23975 whole entry): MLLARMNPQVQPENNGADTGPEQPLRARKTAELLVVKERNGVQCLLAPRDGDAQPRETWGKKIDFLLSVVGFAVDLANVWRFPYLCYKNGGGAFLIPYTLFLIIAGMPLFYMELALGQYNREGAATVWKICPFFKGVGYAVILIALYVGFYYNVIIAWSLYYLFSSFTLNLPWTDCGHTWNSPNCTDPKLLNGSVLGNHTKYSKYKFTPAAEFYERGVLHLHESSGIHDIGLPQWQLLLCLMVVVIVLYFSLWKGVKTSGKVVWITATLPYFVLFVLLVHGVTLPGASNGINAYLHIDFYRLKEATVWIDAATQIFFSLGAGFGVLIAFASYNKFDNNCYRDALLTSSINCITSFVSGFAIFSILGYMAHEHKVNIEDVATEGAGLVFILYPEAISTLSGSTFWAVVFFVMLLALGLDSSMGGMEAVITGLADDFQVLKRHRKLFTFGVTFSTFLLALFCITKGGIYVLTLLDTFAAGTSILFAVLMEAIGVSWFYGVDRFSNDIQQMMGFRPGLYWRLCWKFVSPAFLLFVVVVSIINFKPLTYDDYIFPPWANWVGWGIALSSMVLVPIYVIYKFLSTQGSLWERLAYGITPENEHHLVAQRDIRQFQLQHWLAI
# T1 sequence (Q01959 whole entry): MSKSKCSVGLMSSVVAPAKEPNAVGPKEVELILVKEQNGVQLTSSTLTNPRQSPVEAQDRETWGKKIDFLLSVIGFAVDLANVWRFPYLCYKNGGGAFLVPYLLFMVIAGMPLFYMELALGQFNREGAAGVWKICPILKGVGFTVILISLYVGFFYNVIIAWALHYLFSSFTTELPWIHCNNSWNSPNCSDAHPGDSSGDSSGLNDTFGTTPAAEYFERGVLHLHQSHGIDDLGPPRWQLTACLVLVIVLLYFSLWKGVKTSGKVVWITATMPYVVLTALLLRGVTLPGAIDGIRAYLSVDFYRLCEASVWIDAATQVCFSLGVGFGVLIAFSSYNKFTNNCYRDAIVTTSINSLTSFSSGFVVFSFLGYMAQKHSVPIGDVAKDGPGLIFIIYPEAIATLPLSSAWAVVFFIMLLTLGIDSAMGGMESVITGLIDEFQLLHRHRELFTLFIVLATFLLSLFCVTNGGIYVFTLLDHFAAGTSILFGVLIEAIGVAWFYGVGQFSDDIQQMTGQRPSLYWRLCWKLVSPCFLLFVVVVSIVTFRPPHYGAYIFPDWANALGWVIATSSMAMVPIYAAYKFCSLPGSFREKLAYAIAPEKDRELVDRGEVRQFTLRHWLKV
# T3 sequence (P31645 whole entry): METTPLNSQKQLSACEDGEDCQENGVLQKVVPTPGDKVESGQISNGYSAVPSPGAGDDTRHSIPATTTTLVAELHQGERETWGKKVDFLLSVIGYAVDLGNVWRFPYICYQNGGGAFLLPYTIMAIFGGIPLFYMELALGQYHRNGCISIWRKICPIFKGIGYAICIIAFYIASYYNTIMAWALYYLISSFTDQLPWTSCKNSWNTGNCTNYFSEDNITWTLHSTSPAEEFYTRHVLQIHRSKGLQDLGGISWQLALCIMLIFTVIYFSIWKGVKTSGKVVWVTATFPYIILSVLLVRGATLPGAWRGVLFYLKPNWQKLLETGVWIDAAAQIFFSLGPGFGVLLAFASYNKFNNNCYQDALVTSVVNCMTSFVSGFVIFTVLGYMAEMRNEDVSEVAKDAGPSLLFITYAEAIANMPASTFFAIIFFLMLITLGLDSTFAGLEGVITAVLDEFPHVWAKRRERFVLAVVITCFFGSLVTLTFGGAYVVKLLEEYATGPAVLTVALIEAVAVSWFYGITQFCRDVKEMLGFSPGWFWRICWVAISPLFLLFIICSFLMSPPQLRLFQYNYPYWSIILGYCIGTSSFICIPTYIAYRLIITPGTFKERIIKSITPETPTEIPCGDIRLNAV
Structure (SMILES),Ki [3] [nM],Ki [4] [nM],Ki [5] [nM],IC50 [6] [nM],Ratio DAT/SERT [6],IC50 [7] [nM],"% maximum release ± sem, hDAT [3H]DA [9] [%]","% maximum release ± sem, hSERT [3H]5-HT [10] [%]","% maximum release ± sem, hNET [3H]NE [11] [%]",IC50 [8] [nM],further results
CCNC(C)C(=O)c1ccc2c(c1)OCO2 (centres unmarked) [ethylone],,,,,,,,,,,Ratio DAT/SERT [1]: 0.27
CCCC(C(=O)c1ccccc1)N1CCCC1 (stereo not drawn) [α-PVP],,,,,,,,,,,Ratio DAT/SERT [1]: 2900; IC50 [2]: 46 ± 18 nM
CNC(C)C(=O)c1ccc(C)cc1 (centres unmarked) [mephedrone],,,,,,,,,,,"DAT selectivity (DAT/SERT) ([1]; ref Eshleman et al. 2013, Luethi et al. 2018): 5.2 fold"
"CN[C@@H](C)Cc1ccccc1 [METH, methamphetamine, reference compound]",4410 ± 430,150000 ± 17000,2510 ± 240,97 ± 13,96,9300 ± 1100,106.7 ± 2.3,101.8 ± 3.1,107.5 ± 8.7,,"IC50 [8, 16]: 25.8 ± 3 nM; EC50 [9]: 1200 ± 350 nM; EC50 [10]: 14500 ± 4200 nM; EC50 [11]: 255 ± 78 nM"
"CNC(C)Cc1cc2ccccc2o1 (stereo not drawn) [2-MAPB, N,α-dimethyl-2-benzofuranethanamine]",,,,,3.0,,48.0 ± 2.6,77.3 ± 5.3,63 ± 10,,"Ki [3, 17]: 1630 ± 440 nM; Ki [5, 18]: 1990 ± 220 nM; IC50 [8, 16]: 39.3 ± 5.2 nM; releasing efficacy at hDAT [9]: partial release; releasing efficacy at hSERT [10]: partial release; releasing efficacy at hNET [11]: partial release; EC50 [11, 19]: 450 ± 120 nM; increase in extracellular 5-HT levels [12]: 6- to 12 fold"
"CCNC(C)Cc1ccc2occc2c1 (centres unmarked) [5-EAPB, reference compound]",,,,,,,,,,,increase in extracellular 5-HT levels [12]: 6- to 12 fold
"CNC(C)Cc1ccc2c(c1)OCO2 (centres unmarked) [MDMA, reference compound]",,,,,0.25,,,,,,"Ki [3, 17]: 31000 ± 4900 nM; Ki ([5]; read-out: Inhibition of [125I]RTI-55 binding Ki ± sem, hNET): 15800 nM; IC50 ([8]; read-out: Inhibition of [3H]neurotransmitter uptake IC50 ± sem, hNET [3H]NE): 630 nM; % maximum release ± sem, hDAT [3H]DA [13]: 94 ± 10%; % maximum release ± sem, hSERT [3H]5-HT [14]: 85.1 ± 7.8%; EC50 [15, 19]: 360 ± 92 nM; % maximum release ± sem, hNET [3H]NE ([15]; relative to maximal METH release): 147 ± 15%"
"CCCCC(C(=O)c1ccc2c(c1)OCO2)N1CCCC1 (stereo not drawn) [3,4-MDPHP, 3,4-methylenedioxy-α–pyrrolidinohexanophenone]",19.2 ± 5.1,2430 ± 510,935 ± 93,8.4 ± 2.2,160,1340 ± 410,,,,47 ± 10,
"CNC(C)Cc1ccc2c(c1)CCO2 (centres unmarked) [5-MAPDB, 1-(2,3-dihydrobenzofuran-5-yl)-N-methylpropan-2-amine]",> 30000,8800 ± 1700,> 30000,2790 ± 800,0.041,113 ± 30,32 ± 13,95.7 ± 8.9,64.2 ± 4.7,560 ± 180,selectivity for SERT over DAT (uptake potency) ([7]; uptake inhibition potencies): 25 fold; EC50 [9]: 34700 ± 9600 nM; EC50 [10]: 340 ± 35 nM; releasing efficacy at hSERT [10]: fully efficacious; EC50 [11]: 840 ± 310 nM
CCCC(NC)C(=O)c1ccccc1 (centres unmarked) [Pentedrone],,,,,,,,,,,Ratio DAT/SERT [1]: 51; IC50 [2]: 239 ± 67 nM
CCCC(NC)C(=O)c1ccc2c(c1)OCO2 (centres unmarked) [Pentylone],,,,,,,,,,,Ratio DAT/SERT [1]: 4.9; IC50 [2]: 650 ± 160 nM
"CNC(COC)C(=O)c1ccc(C)cc1 (centres unmarked) [Mexedrone, 3-methoxy-2-(methylamino)-1-(p-tolyl)propan-1-one]",8390 ± 540,22200 ± 6200,> 27600,2750 ± 220,2.0,5400 ± 1200,3.04 ± 0.61,84 ± 13,12.5 ± 3.1,3190 ± 980,EC50 [9]: > 100000 nM; releasing efficacy at hDAT [9]: no hDAT efficacy; EC50 [10]: 26100 ± 9300 nM; releasing efficacy at hSERT [10]: full efficacy; EC50 [11]: > 61000 nM; releasing efficacy at hNET [11]: minimal hNET efficacy
"CNC(C)Cc1ccc2occc2c1 (stereo not drawn) [5-MAPB, N,α-dimethyl-5-benzofuranethanamine]",,,,,1.4,,53.8 ± 6.6,104.3 ± 5.7,89.0 ± 8.0,,"Ki [3, 17]: 2660 ± 610 nM; Ki [5, 18]: 3150 ± 270 nM; IC50 [8, 16]: 73 ± 18 nM; releasing efficacy at hDAT [9]: partially efficacious; releasing efficacy at hSERT [10]: fully efficacious; releasing efficacy at hNET [11]: partially efficacious; EC50 [11, 19]: 580 ± 210 nM; increase in extracellular 5-HT levels [12]: 6- to 12 fold"
"CCCC(Cc1ccccc1)N1CCCC1 (centres unmarked) [Prolintane, 1-[1-(phenylmethyl)butyl]-pyrrolidine]",219 ± 19,2520 ± 330,560 ± 190,100 ± 21,11,1110 ± 350,,,,46 ± 6.8,fold higher hSERT uptake potency ([7]; compared to 4-F-α-PVP): 40 fold
"CC(C(=O)c1ccc(Cl)cc1)N1CCCC1 (stereo not drawn) [4-Cl-α-PPP, 4’-chloro-α-pyrrolidinopropiophenone]",1300 ± 450,12700 ± 3200,3580 ± 920,730 ± 130,8.8,6400 ± 1500,,,,1420 ± 380,

# Source: paper PMC6500773 (Psychopharmacology, 2018)
